Laboratory results published in patent US11879145B2, “Reagents and methods for replication, transcription, and translation in semi-synthetic organisms” (The Scripps Research Institute, priority 2019, dated 2024).

Test system: sfGFP^151(AXC)
Assay: In vivo translation screen of XTPs/YTPs: total sfGFP fluorescence
Format: cell-based, E. coli
Experimental: In vivo Translation Screen of XTPs/YTPs. An overnight culture of the SSO strain ML2 carrying the pGEX-MbPylRS TetR plasmid was grown in 2×YT supplemented with 50 mM potassium phosphate, […] chloramphenicol and 100 μg/mL carbenicillin (herein referred to in this section as “media”), then diluted back to an OD600 of 0.03 in the same media and grown to an OD600 of 0.4 to 0.6. The culture was then chilled with shaking over ice-water for 15 minutes then pelleted by centrifugation at 3,200×g for 10 min. Cells were then resuspended and washed with ice-cold ddH2O twice then resuspended in ice-cold ddH2O to OD600 of 55-65. The electrocompetent cells (50 μL) and 1 ng of Golden Gate assembled plasmid with the UBP within the sfGFP and tRNAPyl genes (see Golden Gate Assembly of Plasmids) were transferred to a pre-chilled electroporation cuvette (0.2-cm-gap), then electroporated (Gene Pulser II; Bio-Rad) according to manufacturer's recommendations (voltage […], capacitor 2.5 μF, resistor 200Ω), and then immediately diluted with 950 μL of media. An aliquot (40 μL) of the transformation was then diluted five-fold in media supplemented with dCNMOTP (25 μM) and dTPT3TP (10 μM) for a final volume of 200 μL then allowed to recover for 1 h shaking at 37° C. Two-fold dilutions of the recovery were plated onto solid media supplemented with zeocin (50 μg/mL), dCNMOTP (10 μM), dTPT3TP (10 μM), and agar (2% w/v), then grown at 37° C. for 18 h. Single colonies were picked and grown in media (300 μL) supplemented with 50 μg/mL zeocin and provided dCNMOTP (25 μM) and dTPT3TP (10 μM) (herein afterward referred to in this section as “growth media”). The culture was monitored for cell growth (Envision 2103 Multilabel Plate Reader with a 590/20 nm filter) and then collected at an OD600˜1.0. An aliquot (50 μL) was subjected to plasmid isolation using the ZR Plasmid Prep Kit (Zymo Research). Isolated plasmids were then subjected to the streptavidin gel shift assay described below (using primers P3-4 and P5-6, Table S1) to determine UBP retention.
A colony with excellent UBP retention was then diluted to an OD600˜0.01 in growth media and grown to OD600˜0.4-0.6. This culture was then divided into multiple 300 μL cultures and for the screen of XTP analogs, each was provided with the corresponding XTP (at either 25 μM or 250 μM) or ddH2O for “−XTP” samples, TPT3TP (30 μM), and AzK (10 mM). For the screen of YTP analogs, each 300 μL culture was provided with the corresponding YTP (at either 25 μM or 250 μM) or ddH2O for “−YTP” samples, NaMTP (250 μM), and AzK (10 mM). Samples were shielded from light after addition of AzK to prevent photodegradation. These samples were then grown at 37° C. for 20 min before adding 1 mM IPTG and grown at 37° C. for an additional 1 h to induce T7 RNAP and transcription of tRNAPyl and PylRS. From this point on, cells were monitored for growth and fluorescence. Expression of sfGFP was then induced with anhydrotetracycline (100 ng/mL). After an additional 3 h of growth at 37° C., cells were collected (230 μL for affinity purification of sfGFP), cooled, and then pelleted and stored at −80° C. before protein purification.
An SAR analysis was initiated with NaMTP and the nine XTP analogs. Based on performance in the dXTP screen described above, and to eliminate variable loss at the DNA level as a complicating factor, the unnatural information was encoded with the dCNMO-dTPT3 UBP. Additionally, the E. coli strain ML2, which expresses the nucleoside triphosphate transporter PtNTT2, but has also been genetically engineered for higher fidelity replication of the UBP by deletion of the gene encoding RecA (as is common in cloning strains) and overexpression of DNA Pol II was used. The same plasmid described above in Examples 1A and 1, harboring sfGFP^151(AXC) and tRNA^Pyl(GYT), was used, and to focus the screen to a single unnatural ribonucleotide, the M. mazei Pyl tRNA was transcribed in the presence of 30 μM TPT3TP. […]

Structure (SMILES): COc1cc(C)c(F)cc1[C@@H]1O[C@H](COP(=O)(O)OP(=O)(O)OP(=O)(O)O)[C@@H](O)[C@H]1O [Compound 5FMTP]
- More fluorescence than MMO2TP (XTP 25 μM): 34%
- Bulk fluorescence compared to cells grown with NaMTP at the same concentration (XTP 250 μM): 90%
